Literature values as cited in patent publication US20230330223A1, “TREATMENT OF HER2 NEGATIVE, MAMMAPRINT HIGH RISK 2 BREAST CANCER” (Agendia N.V., priority 2020, published 2023).

Tested on: locally advanced breast cancer (Stage II/III)
Conditions: added to standard neoadjuvant chemotherapy; ERBB2-negative (HER2-negative) breast cancer

pembrolizumab: immune check point inhibitor, PD1/PDL1 inhibitor antibody (Merck)
estimated pCR rates, change versus standard chemotherapy: more than doubled
